In patent US20240270786A1, “STEROID COMPOUNDS” (Epirium Bio Inc., priority 2022, published 2024):

Tests used:
[1] = Pharmacokinetics: quantitative determination of compounds in mice brains; format: in vivo, C57BL/6 Mice; conditions: C57BL/6, mouse, brain, 10 mg/kg PO single dose, vehicle 10% NMP
Description: (§1) C57BL/6 Mice, Age 7-9 weeks, body weight range 20-25 g were used. The mice were fasted overnight. Mice were dosed once a day for a single day at 10 mg/kg, 10 mg/kg. 6 time-points were used for whole blood. 10% NMP was used as a vehicle. 9 animals were used per treatment, with three groups of three animals each. Group 1 had time points at 15 and 60 minutes, Group 2 had time points at 30 and 120 minutes, and Group 3 had time points at 90 and 240 minutes. An Oral (PO) route was used. Plasma and brain samples were collected (brain sample collected at terminal time point). Plasma was collected through the centrifugation of whole blood at 10,000 rpm for 10 minutes at 4° C. Samples were stored at −80° C. until processing.
(§2) 1.00 mg/mL in 100% MeOH PP vials (prepared at RT yellow light) at 2-8° C. were used as stock solution. 12.22-50000 ng/mL using 80% MeOH PP vials (prepared at RT yellow light) at 2-8° C. were used as working solution. 0.48-2000 ng/mL (prepared at RT yellow light) was used for the curve range. For Compounds 26, 40, and 50, 1.00 mg/mL of Compound 53 in 100% methanol Ria vials (Prepared at RT yellow light) was used as IS stock solution, and 80 ng/mL of Compound 53 in 80% methanol (Prepared at RT yellow light) was used as IS working solution. For Compound 36, 1.00 mg/mL of Compound 47 in 100% methanol Ria vials (Prepared at RT yellow light) was used as IS stock solution, and 80 ng/mL of Compound 47 in 80% methanol (Prepared at RT yellow light) was used as IS working solution. A linear, 1/×2 fit type was used. The injection volume was 10 μL for Compounds 26 and 36, and 5 μL for Compounds 40 and 50. Mobile Phase A was 0.1% Formic Acid in water at room temperature. Mobile Phase B was 100% methanol at room temperature. R0 wash solution was 80% methanol at room temperature. R3 wash solution was IPA/MeOH/ACN/water (1:1:1:1) at room temperature. The column was Agilent Eclipse 50*2.1 mm 1.8 μm and the instrument was Shimadzu LC-40 UPLC and AB Sciez 6500+ with LCMS002.
100 mg of brain tissue were weighed, 400 μL of Ice cold PBS was added, and samples were homogenated using polytron homogenizer. Before starting the experiment the blade was cleaned with NS, Methanol, Methanol: Water (50:50) followed by NS. Using a pipette with Methanol-rinsed pipette tips, homogenate 50 μL of each sample (calibration curve sample, QC samples and blank matrix) was aliquoted to labeled 1.5 ml Ependorfs. Using a pipette, 5.0 μL of IS of conc. 80 ng (Cocktail IS) was aliquoted to each standards and samples except Blank. All tubes were mixed on a multi-tube vortex for approximately 30 seconds. 1 ml of tert-butyl methyl ether (TBME) was added. All tubes were mixed on a multi-tube vortex for approximately 5 minutes then centrifuged for 10 min at 5,000 rpm, 4° C. The sample was kept in methanol containing dry ice for few seconds to freeze the Aqueous layer (flash freeze method). The upper organic layer was poured from the frozen tubes into the labeled 12×75-mm rial vials and evaporated to dryness under nitrogen using Liquid Evaporator (30° C., ˜15 psi, ˜10 mins). 200 μl of reconstitution solution (0.1% Formic Acid: MeOH (20:80 v/v) were added into each tube. The samples were vortexed for 30 seconds then transferred to amber glass injection vials for injection.
At the terminal time points, animals were euthanized after blood sample collection. Their skulls were opened and whole brains were separated and collected in previously labeled tubes. The tubes were then immediately transferred into liquid nitrogen container for snap freezing. Later the samples were stored at −80° C.

[2] = Pharmacokinetics: quantitative determination of compounds in mice plasma; format: in vivo, C57BL/6 Mice; conditions: 10 mg/kg PO single dose, vehicle 10% NMP; for AUC(0-inf) / AUC(0-t) / Cmax / Tmax: C57BL/6, mouse
Description: as §1
as §2, with “0.98-4000” for “0.48-2000”
Using a pipette, 25 μL of each sample were aliquoted (calibration curve sample, QC samples and blank matrix) to labeled 1.5 ml eppendorf. Using a pipette, 5.0 μL of IS of conc. 80 ng (Cocktail IS) was aliquoted to each standards and samples except Blank. All tubes were mixed on a multi-tube vortex for approximately 30 seconds. 50 μL of 10 mM Sodium bi-carbonate were added. 1 ml of tert-butyl methyl ether (TBME) was added. All tubes were mixed on a multi-tube vortex for approximately 5 minutes then centrifuged for 10 min at 5,000 rpm for Compounds 26 and 36 and at 10,000 rpm for Compounds 40 and 50, 4° C. The sample was kept in methanol containing dry ice for few seconds to freeze the Aqueous layer (flash freeze method). The upper organic layer was poured from the frozen tubes into the labeled 12×75-mm rial vials and evaporated to dryness under nitrogen using Liquid Evaporator (30° C., ˜15 psi, ˜10 mins). 200 μl of reconstitution solution (0.1% Formic Acid: MeOH (20:80 v/v) were added into each tube. Samples were Vortexed for 30 seconds then transferred to amber glass injection vials for injection.
After test item administration, blood samples were collected from individual animals in previously labeled Heparinised blood collection tubes. Blood samples were collected from retro orbital plexus. The time points for collection of blood samples from all the animals are; 0.25, 0.5, 1, 2 and 4 hr. The collected samples were subjected to centrifugation @ 10,000 rpm for 10 minutes at 40° C. for separation of plasma. Thereafter, plasma samples were collected in previously labeled plasma tubes. These were stored at −80° C. until analysis.

| AUC(0-t) [1] [ng·h/mL] | Cmax [1] [ng/mL] | Tmax [1] [h] | T½ [2] [h] | AUC(0-inf) [2] [ng·h/mL] | AUC(0-t) [2] [ng·h/mL] | Cmax [2] [ng/mL] | Tmax [2] [h] | SMILES |
| --- | --- | --- | --- | --- | --- | --- | --- | --- |
| 487 | 433 | 1 | 1.03 | 993 | 930 | 2130 | 0.25 | CN1C(=O)CC[C@@]2(C)C1=CCC1C2[C@@H](O)C[C@@]2(C)C1CC[C@@H]2NC(=O)C1CC1 (stereo partly drawn) [Compound 26, N-((4aR,5S,6aS,7S)-5-hydroxy-1,4a,6a-trimethyl-2-oxo-2,3,4,4a,4b,5,6,6a,7,8,9,9a,9b,10-tetradecahydro-1H-indeno[5,4-f]quinolin-7-yl)cyclopropanecarboxamide] |
| 1640 | 1160 | 1 | 1.11 | 1640 | 1500 | 1960 | 0.25 | CC(C)CCNC(=O)C1CCC2C3CC=C4N(C)C(=O)CC[C@]4(C)C3[C@@H](O)C[C@]12C (stereo partly drawn) [Compound 36, (4aR,5S,6aS)-5-hydroxy-N-isopentyl-1,4a,6a-trimethyl-2-oxo-2,3,4,4a,4b,5,6,6a,7,8,9,9a,9b,10-tetradecahydro-1H-indeno[5,4-f]quinoline-7-carboxamide] |
| 2500 | 1680 | 1 | 0.933 | 2430 | 2300 | 2200 | 0.25 | CNC(=O)[C@H]1CCC2C3CC=C4N(C)C(=O)CC[C@]4(C)C3[C@@H](O)C[C@@]21C (stereo partly drawn) [Compound 40, (4aR,5S,6aS)-5-hydroxy-N,1,4a,6a-tetramethyl-2-oxo-2,3,4,4a,4b,5,6,6a,7,8,9,9a,9b,10-tetradecahydro-1H-indeno[5,4-f] quinoline-7-carboxamide] |
